We go through 9 compounds from patent US20150018294A1, “MODULATORS OF TOUSLED KINASE IN CELLULAR PROCESSES” (priority 2012, published 2015).

Entries after “also recorded” stand apart in the source; their conditions may differ.

Assay [1] concerns the target T1, TLK1B (Homo sapiens, UniProt Q9UKI8).
T1 sequence (Q9UKI8 1-549 isoform Q9UKI8-3): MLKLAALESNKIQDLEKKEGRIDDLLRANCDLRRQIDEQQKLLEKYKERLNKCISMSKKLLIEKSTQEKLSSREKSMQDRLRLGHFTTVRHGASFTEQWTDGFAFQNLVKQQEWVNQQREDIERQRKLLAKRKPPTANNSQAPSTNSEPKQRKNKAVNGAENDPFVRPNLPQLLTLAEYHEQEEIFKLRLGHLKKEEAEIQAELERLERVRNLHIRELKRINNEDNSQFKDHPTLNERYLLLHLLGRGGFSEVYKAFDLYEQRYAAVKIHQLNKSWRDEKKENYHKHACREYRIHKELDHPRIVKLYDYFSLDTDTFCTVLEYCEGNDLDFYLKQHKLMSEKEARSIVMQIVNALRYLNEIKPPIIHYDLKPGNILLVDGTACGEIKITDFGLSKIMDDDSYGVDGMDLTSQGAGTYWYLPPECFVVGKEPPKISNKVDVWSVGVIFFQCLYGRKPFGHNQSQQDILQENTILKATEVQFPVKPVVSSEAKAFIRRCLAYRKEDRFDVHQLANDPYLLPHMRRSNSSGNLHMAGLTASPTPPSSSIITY
The assay can be described thus: TLK1B kinase assay (auto kinase assay with γ 32P ATP; recombinant TLK1B with Rad9 peptide). It counts as biochemical. The conditions noted are these: for activity on TLK (TLK kinase assays): inactive defined at concentrations <10 μM. On the procedure: To identify inhibitors of TLK, we developed a high throughput screen with recombinant TLK1B, a small Rad9 peptide and the ADP Hunter reagent (DiscoveRx). Using this assay, the Innovative North Louisiana Experimental Therapeutics (INLET) screening core (affiliated with the FWCC) screened the Prestwick library, two other proprietary libraries, and a subset of the ChemDiv library (˜6000 compounds).
Following the initial fluorescent screen at a compound concentration of ˜5 μM, potential hits were tested with a more sensitive auto kinase assay with γ 32P ATP. Inhibition of auto phosphorylation was confirmed by TCA precipitable counts (FIG. 1A). The inhibitors are highly specific for TLKs. […] We have additional evidence for direct binding of these compounds to the recombinant protein (to be published elsewhere).
TlK1 immune complexes isolated from […] protein extracts using abtiserum made in our lab and Protein A beads. Adsorbed proteins were washed twice in kinase assay buffer (KAB) (50 mM HEPES pH 7.2, 10 mM MgCl2, 5 mM MnCl2, 2.5 mM EGTA, 1 mM DTT, 1 mM NaF, 0.2 mM sodium o vanadate, […] leupeptin, 2 g/ml aprotinin) and incubated for 15-30 min at 30° C. in KAB supplemented with 10 µM ATP, 10 Ci [−32P]ATP (>5000 Ci/mmol, GE). The proteins were separated on 10% SDS-PAGE gels, transferred to nitrocellulose before exposure on a Phosphorlmager; and then processed for WB with TLK1 antiserum. For kinase assays with recombinant TLK1B protein, the reactions were similar, and carried out with 10 ng TLK1B and 50 ng Rad9 peptide substrate. These were carried out to confirm the initial “hits” from the screen and further to obtain accurate ID50 values for the various inhibitors.

Assay [2] concerns the target T2, GST TLK1B (Homo sapiens, UniProt Q9UKI8).
T2 sequence (Q9UKI8 1-549 isoform Q9UKI8-3): T1 sequence (Q9UKI8 1-549 isoform Q9UKI8-3)
The assay can be described thus: Binding to GST TLK1B affixed to Immobilon filter. Particulars: color will not wash out. From the text: To determine how structurally related antipsychotic drugs might differ from each other and produce different biological effects, we analyzed optimized drug structures by quantum mechanics (QM) methods. Drugs of interest were built with MarvinSketch 5.3.2 (ChemAxon) for initial optimization of the 3D structure. For the panels shown here (Sup. FIG. 1), orbitals from the highest occupied molecular orbital (HOMO) and the lowest unoccupied molecular orbital (LUMO) have been depicted. […] The planar heterocyclic ring structure of staurosporine and its out of plane aminated glucose moiety are reminiscent of the structure of the phenothiazines. Bulky substituents on the main phenothiazine ring, such as fluorine groups, may only be tolerated in a certain orientation relative to the alkyl side chain, depending upon the reactivity of the side chain. Moreover, the fit at the binding site will be determined by whether active groups in the drugs (rings vs. side chains) serve as donors or acceptors in non bond interactions (e.g., it bonding and van der Waals interactions). While QM characterization of the drugs is not definitive, certain trends emerged from this analysis. In Sup. […] In fact, methylene blue, which stains nucleic acids but not most proteins, remains so tightly bound to GST TLK1B that after its affixation to an Immobilon filter the color bound to the protein will not wash out.

Assay [3] has as its target D2 receptor (Homo sapiens, UniProt P14416). Particulars: cited from earlier work.
Assay [4] relates to PC 3 (human CaP cells). Particulars: THD 0.25 mg daily oral gavage; doxo 1 mg/kg intraperitoneal days 54, 68, 95. On the procedure: PC 3 model. A study was undertaken to investigate the in vivo efficacy of THD compared to doxo and to determine any sensitization conferred to the tumor cells by treatment with a combination of the two drugs. Eighty male SCID/bg mice received 1×106 PC 3 (human CaP cells) cells subcutaneous into their flanks. At day 49 post s inoculation, we began weekly tumor measurements by caliper [volume=(L×W2)[…])]. […] At day 54, daily oral gavages of THD (0.25 mg in water) were given, and intraperitoneal injections of doxo (1 mg/kg; see arrows in FIG. 7) were at days 54, 68, and 95 (last day before euthanasia). […] In any case, the tumors were excised at the end of the experiment (before the control group tumors reached the preset end point of 1500 mm3) and processed for IHC analysis. The mice were dosed on last day before euthanasia with doxo to induce bona fide DSBs.

Assay [5] concerns PC 3 (human CaP cells). Kind of assay: IHC analysis of excised PC 3 tumors. The arrangement: species or system SCID/bg mice. Particulars: mouse, in vivo. From the text:
Some features are immediately noticeable even upon H&E staining that could explain the tumor growth patterns. […] We interpret this as being the result of accumulation of DNA damage, including DSBs, which are not promptly repaired, even as they may be expected to occur spontaneously in many cells in the harsh environment of tumor growth. This has in fact been reported before and was attributed to localized hypoxia 24. […] The staining was not negative, as one may think, since inspection at higher magnification confirmed the expected pattern of exclusively nuclear staining and lower intensity in nucleoli. […] This is consistent with the γH2AX pattern, showing a large number of cells harboring repair foci, and thus likely arrested in replication (or progressing slowly through S phase). To further establish this, we looked at presence of RPA foci, which is indicative of stalled forks25. As expected from the large number of proliferating cells (PCNA positive) in control tumors, RPA1 Staining was very strong, and particularly in focal areas. RPA1 staining in tumors from doxo treated mice was interesting. […] In tumors from mice treated with doxo+THD, staining for RPA was very weak and consistent to that obtained for PCNA. […] However, we did stain for P Rad9 (S328) to confirm that the effects were mediated via TLK inhibition, in what we propose is part of a checkpoint deactivation mechanism following repair of spontaneous DNA damage. Indeed, numerous cells stained lightly for P Rad9 in untreated tumor cells in fact, they are perhaps a larger proportion than those staining for γH2AX that presumably represent cells with unrepaired DSBs.

Assay [6] concerns MDA 231-Luc. Kind of assay: MDA 231-Luc xenograft model. It counts as in vivo. The conditions noted are these: female SCID/bg mice, treatment groups as in PC 3 study. From the text:
We used the breast cancer model cell line MDA 231-Luc, for more precise quantitation of tumor growth (photon emission is linear with the tumor cell number). Female SCID/bg mice (N=8 per group) received 1×10^6 cells and when the tumors reached ˜500 mm3 (˜104 photons/sec) they were assigned to four treatment groups, as in the study above (Sup. FIG. 4).

In assay [7] the test system is Rad9 S328 phosphorylation in DU145 cells. The assay can be described thus: Rad9 S328 phosphorylation and checkpoint markers in DU145 cells after H2O2. In kind it is cell-based, human. On the procedure:
The inhibitors worked as expected on the pattern of phosphorylation of Rad9 […]. After treatment of DU145 cells with H2O2 for 10 min to generate breaks, there is a corresponding wave of phosphorylation and dephosphorylation of […] after completion of repair (FIG. 5) that matches the pattern of activity of TLK1/1B TLKs are the only known kinases that phosphorylate Rad9 […] 4. Generation of DSBs causes transient inhibition of TLK1 and simultaneous synthesis of TLK1B, which then results in hyper phosphorylation of […] upon restoration of kinase activity [FIG. 5A; 5]. Once H2O2 is degraded and most DNA breaks are repaired, the phosphorylation returns to baseline. The inhibitors, PPH (LS125) in particular, blocked the activation of TLK and consequent phosphorylation of Rad9 ([…]) (5C). […] FIG. 5). A key role of TLKs is then to participate in restoration of cell cycle upon completion of repair. Interfering with this process has dire consequences for cell viability; more likely for cancer cells that are genetically more unstable and already have defects in DNA repair functions, if not just for their reliance on these kinases.

The subject of assay [8] is cell cycle. The assay can be described thus: Cell cycle and apoptosis, with or without doxo. In kind it is cell-based. Particulars: inhibitor alone, 15 μM. From the text: A matching experimental set was processed by WB for evidence of cleaved PARP, and possible effects on ClnD1 accumulation, which occurs in late G1 and throughout S phases. […] The
Assay [9] deals with stalled replication forks. The assay can be described thus: Restart of stalled replication forks after release from hydroxyurea. In kind it is cell-based. Particulars: after release from hydroxyurea (HU).
Assay [10] has as its target DNA PK (Homo sapiens, UniProt P78527). The conditions noted are these: cited from earlier work.

D2 receptor, sequence (P14416 whole entry): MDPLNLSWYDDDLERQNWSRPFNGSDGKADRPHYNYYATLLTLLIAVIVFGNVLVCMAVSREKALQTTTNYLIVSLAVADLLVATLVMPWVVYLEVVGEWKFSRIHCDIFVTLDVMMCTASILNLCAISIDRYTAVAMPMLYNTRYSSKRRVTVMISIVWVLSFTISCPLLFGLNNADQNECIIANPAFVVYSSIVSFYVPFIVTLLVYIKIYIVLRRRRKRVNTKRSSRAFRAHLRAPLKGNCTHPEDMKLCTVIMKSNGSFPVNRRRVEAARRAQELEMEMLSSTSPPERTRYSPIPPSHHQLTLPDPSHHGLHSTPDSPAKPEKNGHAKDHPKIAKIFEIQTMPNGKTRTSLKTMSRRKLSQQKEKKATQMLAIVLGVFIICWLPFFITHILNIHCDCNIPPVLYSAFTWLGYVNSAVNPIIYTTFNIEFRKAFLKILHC

On to `c1ccc2c(c1)Nc1ccccc1S2` [phenothiazine], for which the “activity on TLK (TLK kinase assays)” value in [1] was “highly inhibitory”.

Consider `CCSc1ccc2c(c1)N(CCCN1CCN(C)CC1)c1ccccc1S2` [TEZ, thiethylperazine], for which, in assay [1], the “activity on TLK (TLK kinase assays)” value is recorded as “identified as TLK inhibitors”.

For `CN(C)c1ccc2nc3ccc(=[N+](C)C)cc-3sc2c1` [methylene blue], in assay [2], the “binding to GST TLK1B” value is reported as “tightly bound”. Moreover, the “activity on TLK (TLK kinase assays)” value in assay [1] is listed as “highly inhibitory”.

Take `OCCN1CCN(CCCN2c3ccccc3Sc3ccc(C(F)(F)F)cc32)CC1` [FF, fluphenazine]: the D2 receptor antagonism result in [3] is given as “more potent D2 receptor antagonist than either TFP (active) or THD”. Moreover, the “activity on TLK (TLK kinase assays)” value in [1] was “inactive for TLK”.

As for `COc1cccc2c1C(=O)c1c(O)c3c(c(O)c1C2=O)C[C@@](O)(C(=O)CO)C[C@@H]3O[C@H]1C[C@H](N)[C@H](O)[C@H](C)O1` [doxo, doxorubicin], the tumor growth entry in [4] is “definite trend was seen for doxo reducing tumor growth”. Besides, in assay [5], the “P Rad9 (S328) staining” value is “much stronger staining for P Rad9”, the RPA staining entry is listed as “overall staining was weaker for most areas of the section”, the “cellular density of the tumor (H&E staining)” value is on record as “only slightly decreased the cellular density of the tumor” and the γH2AX positive cells result is recorded as “a large proportion”. Besides, the “tumor growth (photon emission)” value in assay [6] is given as “insufficient to stop growth of tumors”.

On to `OCCN1CCN(CCCN2c3ccccc3Sc3ccc(Cl)cc32)CC1` [PPH, perphenazine], for which, in [7] (H2O2), the “Chk1 activation (P Chk1 S345)” value is “persistent activation of Chk1”, the “cleavage of cdc25A” value is recorded as “elicited much faster” and the “phosphorylation of Rad17” value was “prolonged phosphorylation of Rad17”. The “activation of TLK and phosphorylation of Rad9 (S328)” value in [7] (H2O2 for 10 min) is “blocked the activation of TLK and consequent phosphorylation of Rad9 (S328)”. The “activity on TLK (TLK kinase assays)” value in assay [1] is “identified as TLK inhibitors”.

Regarding `CN(C)CCCN1c2ccccc2Sc2ccccc21` [PMZ, promazine], in assay [3], the D2 receptor antagonism result was “does not have much activity as a D2 antagonist”. Moreover, the “activity on TLK (TLK kinase assays)” value in [1] is on record as “identified as TLK inhibitors”.

On to `CN1CCN(CCCN2c3ccccc3Sc3ccc(C(F)(F)F)cc32)CC1` [TFP, trifluoperazine], for which, in assay [8], the “(apoptotic) sub G1 cells” value is “very modest increase”, the “cleaved PARP” value is “very modest evidence of cleaved PARP” and the “effect on the cell cycle” value is given as “little effect on the cell cycle”. In [1], the “activity on TLK (TLK kinase assays)” value is recorded as “active; also recorded: identified as TLK inhibitors”. Further, the “inhibition of TLKs” value in assay [1] (sub toxic concentrations 10-20 μM) is “completely inhibit TLKs”. Besides, the “restart of stalled replication forks and linked phosphorylation of Rad9 (S328)” value in assay [9] is “greatly extends this process”. Further, the “DNA PK inhibition” value in assay [10] (TFP 10-20 μM) was “not inhibited”. Also, the “reported inhibition of DNA PK in vitro, concentration” value in assay [10] (in vitro) was 0.1 to 0.2 mM.

Turning to `CN1CCN(CCCN2c3ccccc3Sc3ccc(Cl)cc32)CC1` [PCP, prochlorperazine], the “activity on TLK (TLK kinase assays)” value in assay [1] is “inactive”.
